Source: patent US20220324835A1 (Nurix Therapeutics, Inc., priority 2018, published 2022)

How the values were obtained:
T-cell [1] = assay: IL-2 secretion from T-cells stimulated with anti-CD3 antibody alone (Biological Example 2); format: cell-based; conditions: primary human total T-cells, read-out: IL-2 secretion, Anti-CD3 stimulation, fold change over baseline; for fold induction at 1 µM: 1 μM compound; for fold induction at 8 µM: 8 μM compound
Cbl-b [2] = molecular target: T1, Cbl-b (Homo sapiens, UniProt Q13191); assay: Cbl-b inhibition assay (Cbl-b activity assay, FRET, Biological Example 1; 100 mM NaCl, 60 nM Src kinase); format: biochemical; conditions: upper bound stated in text lists; read-out: IC50 values in the Cbl-b inhibition assay of Biological Example 1
In short: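 Binding-based Cbl-b activity assay. Src-phosphorylated, N-terminally biotin-Avi-tagged Cbl-b recruits labelled UbcH5B-Ub, and proximity to streptavidin-terbium yields FRET.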

Cbl-b [3] = molecular target: T1, Cbl-b; assay: Cbl-b activity assay (Cbl-b inhibition assay), TR-FRET of Cbl-b interaction with UbcH5B-Ub; format: biochemical; conditions: assay buffer with 100 mM NaCl, 60 nM Src kinase; read-out: Cbl-b activity IC50
In short: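 UbcH5B (C85K) conjugated to N-terminally Bodipy-Fluorescein-labeled ubiquitin served as the fluorescent partner. After compound preincubation, Src kinase (60 nM) with 1 mM ATP and 5 mM MgCl2 (final) was added for 1.5 h, followed by a further 1 h incubation. Some values were obtained with 50 mM NaCl and 30 nM Src.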

T-cell [4] = assay: IL-2 secretion from T-cells co-stimulated with anti-CD3 and anti-CD28 antibody (Biological Example 2); format: cell-based, human; conditions: Homo sapiens, T-cell, primary human total T-cells, baseline = anti-CD3/anti-CD28 stimulated cells without inhibitor, read-out: IL-2 secretion, Anti-CD3/Anti-CD28 stimulation, fold change over baseline; for fold induction at 0.3 µM: 0.3 μM compound; for fold induction at 1 µM: 1 μM compound; for fold induction at 4 µM: 4 μM compound
In short: (§1)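 T-cells were stimulated with anti-CD3 antibody alone or with anti-CD28 antibody, in the presence or absence of Cbl-b inhibitor. IL-2 secretion or CD25 surface staining was measured, and values expressed as fold over the uninhibited baseline […].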

T-cell [5] = assay: CD25 cell surface staining on T-cells stimulated with anti-CD3 antibody alone (Biological Example 2); format: cell-based; conditions: primary human total T-cells, baseline = anti-CD3/anti-CD28 stimulated cells without inhibitor, read-out: CD25 staining, Anti-CD3 stimulation, fold change over baseline; for fold induction at 1 µM: 1 μM compound; for fold induction at 8 µM: 8 μM compound
T-cell [6] = assay: CD25 cell surface staining on T-cells co-stimulated with anti-CD3 and anti-CD28 antibody (Biological Example 2); format: cell-based, human; conditions: Homo sapiens, T-cell, primary human total T-cells, baseline = anti-CD3/anti-CD28 stimulated cells without inhibitor, read-out: CD25 staining, Anti-CD3/Anti-CD28 stimulation, fold change over baseline; for fold induction at 0.3 µM: 0.3 μM compound; for fold induction at 1 µM: 1 μM compound; for fold induction at 4 µM: 4 μM compound
In short: as §1

T1 sequence (Q13191 36-427): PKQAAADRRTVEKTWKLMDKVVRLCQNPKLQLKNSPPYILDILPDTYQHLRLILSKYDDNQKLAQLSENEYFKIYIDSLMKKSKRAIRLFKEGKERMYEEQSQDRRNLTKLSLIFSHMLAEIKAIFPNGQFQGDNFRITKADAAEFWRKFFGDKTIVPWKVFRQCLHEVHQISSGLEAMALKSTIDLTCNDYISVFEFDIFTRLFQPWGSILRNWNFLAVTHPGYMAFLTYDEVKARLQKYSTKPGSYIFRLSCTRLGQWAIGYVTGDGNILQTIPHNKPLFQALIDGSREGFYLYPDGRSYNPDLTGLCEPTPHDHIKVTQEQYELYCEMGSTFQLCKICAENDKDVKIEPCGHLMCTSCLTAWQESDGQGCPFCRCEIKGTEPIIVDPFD

SMILES: C[C@H](Cc1nncn1C)c1cc(N[C@@H](C)CO)nc(N2Cc3c(cccc3C(F)(F)F)C2=O)c1 [Compound 365, 2-(6-((S)-1-hydroxypropan-2-ylamino)-4-((R)-1-(4-methyl-4H-1,2,4-triazol-3-yl)propan-2-yl)pyridin-2-yl)-4-(trifluoromethyl)isoindolin-1-one]
- fold induction at 1 µM (T-cell [1]): 0.051 to 0.1
- fold induction at 8 µM (T-cell [1]): 0.151 to 0.2
- IC50 (Cbl-b [2]): ≤ 0.3 µM
- IC50 (Cbl-b [3]): 0.1 to 0.3 µM
- fold induction at 0.3 µM (T-cell [4]): 1.01 to 2.5
- fold induction at 1 µM (T-cell [4]): 1.01 to 2.5
- fold induction at 4 µM (T-cell [4]): 2.51 to 5
- fold induction at 1 µM (T-cell [5]): 0.601 to 0.8
- fold induction at 8 µM (T-cell [5]): > 1
- fold induction at 0.3 µM (T-cell [6]): 1.01 to 1.3
- fold induction at 1 µM (T-cell [6]): 1.01 to 1.3
- fold induction at 4 µM (T-cell [6]): 1.01 to 1.3

SMILES: C[C@H](Cc1nncn1C)c1cccc(N2Cc3c(cc([C@@H]4CCCNC4)cc3C(F)(F)F)C2=O)c1 [Compound 382, 2-(3-((R)-1-(4-methyl-4H-1,2,4-triazol-3-yl)propan-2-yl)phenyl)-6-((S)-piperidin-3-yl)-4-(trifluoromethyl)isoindolin-1-one]
- fold induction at 1 µM (T-cell [1]): 0.101 to 0.15
- fold induction at 8 µM (T-cell [1]): > 0.201
- IC50 (Cbl-b [2]): ≤ 0.3 µM
- IC50 (Cbl-b [3]): 0.1 to 0.3 µM
- fold induction at 0.3 µM (T-cell [4]): 2.51 to 5
- fold induction at 1 µM (T-cell [4]): 5 to 7.5
- fold induction at 4 µM (T-cell [4]): 5 to 7.5
- fold induction at 1 µM (T-cell [5]): 0.601 to 0.8
- fold induction at 8 µM (T-cell [5]): > 1
- fold induction at 0.3 µM (T-cell [6]): 1.01 to 1.3
- fold induction at 1 µM (T-cell [6]): 1.31 to 1.5
- fold induction at 4 µM (T-cell [6]): 1.51 to 1.75

SMILES: CN1CC2CCC1CN2c1cc2c(c(C(F)(F)F)c1)CN(c1cccc(C3(Cc4nncn4C)COC3)c1)C2=O (centres unmarked) [Compound 387, 2-(3-(3-((4-Methyl-4H-1,2,4-triazol-3-yl)methyl)oxetan-3-yl)phenyl)-6-(5-methyl-2,5-diazabicyclo[2.2.2]octan-2-yl)-4-(trifluoromethyl)isoindolin-1-one]
- fold induction at 1 µM (T-cell [1]): > 0.201
- IC50 (Cbl-b [2]): ≤ 0.1 µM
- IC50 (Cbl-b [3]): < 0.1 µM
- fold induction at 0.3 µM (T-cell [4]): 2.51 to 5
- fold induction at 1 µM (T-cell [4]): 5 to 7.5
- fold induction at 1 µM (T-cell [5]): 0.801 to 1
- fold induction at 0.3 µM (T-cell [6]): 1.01 to 1.3
- fold induction at 1 µM (T-cell [6]): 1.31 to 1.5

SMILES: C[C@H]1CN(C)CCN1c1cc2c(c(C(F)(F)F)c1)CN(c1cccc(C3(Cc4nncn4C)COC3)c1)C2=O [Compound 389, (S)-6-(2,4-Dimethylpiperazin-1-yl)-2-(3-(3-((4-methyl-4H-1,2,4-triazol-3-yl)methyl)oxetan-3-yl)phenyl)-4-(trifluoromethyl)isoindolin-1-one]
- fold induction at 1 µM (T-cell [1]): > 0.201
- IC50 (Cbl-b [2]): ≤ 0.1 µM
- IC50 (Cbl-b [3]): < 0.1 µM
- fold induction at 0.3 µM (T-cell [4]): 5 to 7.5
- fold induction at 1 µM (T-cell [4]): > 7.5
- fold induction at 1 µM (T-cell [5]): > 1
- fold induction at 0.3 µM (T-cell [6]): 1.01 to 1.3
- fold induction at 1 µM (T-cell [6]): 1.31 to 1.5

SMILES: C[C@@H]1CN(C)CCN1c1cc2c(c(C(F)(F)F)c1)CN(c1cccc(C3(Cc4nncn4C)COC3)c1)C2=O [Compound 390, (R)-6-(2,4-Dimethylpiperazin-1-yl)-2-(3-(3-((4-methyl-4H-1,2,4-triazol-3-yl)methyl)oxetan-3-yl)phenyl)-4-(trifluoromethyl)isoindolin-1-one]
- fold induction at 1 µM (T-cell [1]): 0.151 to 0.2
- IC50 (Cbl-b [2]): ≤ 0.1 µM
- IC50 (Cbl-b [3]): < 0.1 µM
- fold induction at 0.3 µM (T-cell [4]): 2.51 to 5
- fold induction at 1 µM (T-cell [4]): > 7.5
- fold induction at 1 µM (T-cell [5]): > 1
- fold induction at 0.3 µM (T-cell [6]): 1.01 to 1.3
- fold induction at 1 µM (T-cell [6]): 1.31 to 1.5

SMILES: CN1CCN(c2cc3c(c(C(F)(F)F)c2)CN(c2cccc(C4(Cc5nncn5C)COC4)c2)C3=O)C(=O)C1 [Compound 391, 6-(4-Methyl-2-oxopiperazin-1-yl)-2-(3-(3-((4-methyl-4H-1,2,4-triazol-3-yl)methyl)oxetan-3-yl)phenyl)-4-(trifluoromethyl)isoindolin-1-one]
- fold induction at 1 µM (T-cell [1]): 0.051 to 0.1
- IC50 (Cbl-b [2]): ≤ 0.1 µM
- IC50 (Cbl-b [3]): < 0.1 µM
- fold induction at 0.3 µM (T-cell [4]): 1.01 to 2.5
- fold induction at 1 µM (T-cell [4]): 1.01 to 2.5
- fold induction at 1 µM (T-cell [5]): 0.801 to 1
- fold induction at 0.3 µM (T-cell [6]): 1.01 to 1.3
- fold induction at 1 µM (T-cell [6]): 1.01 to 1.3

SMILES: C[C@H](Cc1nncn1C)c1cccc(N2Cc3c(cc([C@H](C)N4CC[C@H](F)C4)cc3C(F)(F)F)C2=O)c1 [Compound 404, 6-((S)-1-((S)-3-fluoropyrrolidin-1-yl)ethyl)-2-(3-((R)-1-(4-methyl-4H-1,2,4-triazol-3-yl)propan-2-yl)phenyl)-4-(trifluoromethyl)isoindolin-1-one]
- fold induction at 1 µM (T-cell [1]): > 0.201
- fold induction at 8 µM (T-cell [1]): > 0.201
- IC50 (Cbl-b [2]): ≤ 0.1 µM
- IC50 (Cbl-b [3]): < 0.1 µM
- fold induction at 0.3 µM (T-cell [4]): > 7.5
- fold induction at 1 µM (T-cell [4]): > 7.5
- fold induction at 4 µM (T-cell [4]): > 7.5
- fold induction at 1 µM (T-cell [5]): > 1
- fold induction at 8 µM (T-cell [5]): > 1
- fold induction at 0.3 µM (T-cell [6]): 1.31 to 1.5
- fold induction at 1 µM (T-cell [6]): 1.31 to 1.5
- fold induction at 4 µM (T-cell [6]): 1.31 to 1.5

SMILES: C[C@H](Cc1nncn1C)c1cccc(N2Cc3c(cc([C@@H](C)N4CC(O)C4)cc3C(F)(F)F)C2=O)c1 [Compound 405, 6-((R)-1-(3-hydroxyazetidin-1-yl)ethyl)-2-(3-((R)-1-(4-methyl-4H-1,2,4-triazol-3-yl)propan-2-yl)phenyl)-4-(trifluoromethyl)isoindolin-1-one]
- fold induction at 1 µM (T-cell [1]): > 0.201
- fold induction at 8 µM (T-cell [1]): > 0.201
- IC50 (Cbl-b [2]): ≤ 0.1 µM
- IC50 (Cbl-b [3]): < 0.1 µM
- fold induction at 0.3 µM (T-cell [4]): 2.51 to 5
- fold induction at 1 µM (T-cell [4]): 5 to 7.5
- fold induction at 4 µM (T-cell [4]): > 7.5
- fold induction at 1 µM (T-cell [5]): 0.801 to 1
- fold induction at 8 µM (T-cell [5]): > 1
- fold induction at 0.3 µM (T-cell [6]): 1.01 to 1.3
- fold induction at 1 µM (T-cell [6]): 1.31 to 1.5
- fold induction at 4 µM (T-cell [6]): 1.31 to 1.5

SMILES: C[C@H](Cc1nncn1C)c1cccc(N2Cc3c(cc([C@H](C)N4CC(O)C4)cc3C(F)(F)F)C2=O)c1 [Compound 406, 6-((S)-1-(3-hydroxyazetidin-1-yl)ethyl)-2-(3-((R)-1-(4-methyl-4H-1,2,4-triazol-3-yl)propan-2-yl)phenyl)-4-(trifluoromethyl)isoindolin-1-one]
- fold induction at 1 µM (T-cell [1]): > 0.201
- fold induction at 8 µM (T-cell [1]): > 0.201
- IC50 (Cbl-b [2]): ≤ 0.1 µM
- IC50 (Cbl-b [3]): < 0.1 µM
- fold induction at 0.3 µM (T-cell [4]): 5 to 7.5
- fold induction at 1 µM (T-cell [4]): > 7.5
- fold induction at 4 µM (T-cell [4]): > 7.5
- fold induction at 1 µM (T-cell [5]): > 1
- fold induction at 8 µM (T-cell [5]): > 1
- fold induction at 0.3 µM (T-cell [6]): 1.01 to 1.3
- fold induction at 1 µM (T-cell [6]): 1.31 to 1.5
- fold induction at 4 µM (T-cell [6]): 1.31 to 1.5

SMILES: Cn1cnnc1[C@@H]1C[C@@H]1c1cccc(N2Cc3c(cc(CN4CC[C@H](F)C4)cc3C(F)(F)F)C2=O)c1 [Compound 409, 6-(((S)-3-fluoropyrrolidin-1-yl)methyl)-2-(3-((1S,2R)-2-(4-methyl-4H-1,2,4-triazol-3-yl)cyclopropyl)phenyl)-4-(trifluoromethyl)isoindolin-1-one]
- fold induction at 1 µM (T-cell [1]): > 0.201
- fold induction at 8 µM (T-cell [1]): > 0.201
- IC50 (Cbl-b [2]): ≤ 0.1 µM
- IC50 (Cbl-b [3]): < 0.1 µM
- fold induction at 0.3 µM (T-cell [4]): 2.51 to 5
- fold induction at 1 µM (T-cell [4]): > 7.5
- fold induction at 4 µM (T-cell [4]): > 7.5
- fold induction at 1 µM (T-cell [5]): > 1
- fold induction at 8 µM (T-cell [5]): > 1
- fold induction at 0.3 µM (T-cell [6]): 1.31 to 1.5
- fold induction at 1 µM (T-cell [6]): 1.31 to 1.5
- fold induction at 4 µM (T-cell [6]): 1.51 to 1.75

SMILES: Cn1cnnc1CC1(c2cccc(N3Cc4c(cc(CN5C[C@@H](F)[C@@H](F)C5)cc4C(F)(F)F)C3=O)c2)COC1 [Compound 414, 6-((cis-3,4-Difluoropyrrolidin-1-yl)methyl)-2-(3-(3-((4-methyl-4H-1,2,4-triazol-3-yl)methyl)oxetan-3-yl)phenyl)-4-(trifluoromethyl)isoindolin-1-one]
- fold induction at 1 µM (T-cell [1]): 0.151 to 0.2
- fold induction at 8 µM (T-cell [1]): > 0.201
- IC50 (Cbl-b [2]): ≤ 0.1 µM
- IC50 (Cbl-b [3]): < 0.1 µM
- fold induction at 0.3 µM (T-cell [4]): > 7.5
- fold induction at 1 µM (T-cell [4]): > 7.5
- fold induction at 4 µM (T-cell [4]): > 7.5
- fold induction at 1 µM (T-cell [5]): 0.801 to 1
- fold induction at 8 µM (T-cell [5]): > 1
- fold induction at 0.3 µM (T-cell [6]): 1.31 to 1.5
- fold induction at 1 µM (T-cell [6]): 1.31 to 1.5
- fold induction at 4 µM (T-cell [6]): 1.51 to 1.75
